Literature values, collected in PubChem BioAssay AID1259410 (Chemical Carcinogenesis Research Information System (CCRIS), 2018).

Test system: rodent tumor promotion studies, tumor incidence
Assay: CCRIS tumor promotion studies
[1] = Carcinogen: 7,12-DIMETHYLBENZ(A)ANTHRACENE, Doses [Carcinogen]: TOP, Route [Carcinogen]: DERMAL, Route [Promoter]: DERMAL, Species: MOUSE, Strain/Sex: FEMALE

Oc1cc(Cl)c(Cl)cc1Cl
outcome [1]: integumentary system (skin)

CN[C@@H]1C[C@H]2O[C@@](C)([C@@H]1OC)n1c3ccccc3c3c4c(c5c6ccccc6n2c5c31)C(=O)NC4
outcome (Carcinogen: 7,12-DIMETHYLBENZ[A]ANTHRACENE, 57-97-6, Doses [Carcinogen]: 100 UG IN 100 µL ACETONE TO THE DORSAL SKIN ONCE, Doses [Promoter]: 0, 10, 50 UG IN 100 µL ACETONE TO THE DORSAL SKIN 2/WK FOR 29 WK BEGINNING 1 WK POST CARCINOGEN DOSE (STUDY DURATION: 30, Doses [Promoter]: 0, 10, 50 UG IN 100 µL ACETONE TO THE DORSAL SKIN 2/WK FOR 29 WK BEGINNING 1 WK POST CARCINOGEN DOSE (STUDY DURATION: 30, Route [Carcinogen]: DERMAL, Route [Promoter]: DERMAL, Species: MOUSE, Strain/Sex: CD-1/FEMALE): skin: tumor

O=NN1CCC[C@H]1c1cccnc1
outcome (Carcinogen: Diethylnitrosamine, 55-18-5, Doses [Carcinogen]: 40 mg/l for 4 consecutive d/wk for 180 days, study duration 180 d, Doses [Promoter]: 30 mg/l, 3 d /wk for 180 d, study duration 180 d, Doses [Promoter]: 30 mg/l, 3 d /wk for 180 d, study duration 180 d, Route [Carcinogen]: Oral (drinking water), Route [Promoter]: Oral (drinking water), Species: Mouse, Strain/Sex: CF1/Female (16, 46/Group)): stomach: squamous cell carcinoma (33% vs 22%); adenocarcinoma (17% vs 15%); both

C=C(C)[C@@]12OC3(c4ccccc4)O[C@@H]1[C@@H]1[C@@H]4OC4(CO)[C@@H](O)[C@]4(O)C(=O)C(C)=C[C@H]4[C@@]1(O3)[C@H](C)[C@H]2OC(=O)/C=C/C=C/c1ccccc1 (some centres undefined)
outcome (Carcinogen: 7,12-DIMETHYLBENZ[A]ANTHRACENE, 57-97-6, Doses [Carcinogen]: 10 NMOL APPLIED TO BACK ONCE, Doses [Promoter]: 9 NMOL 2/WK FOR 19 WK BEGINNING 1 WK POST CARCINOGEN DOSE (STUDY DURATION: 40 WK), Route [Carcinogen]: DERMAL, Route [Promoter]: DERMAL, Species: MOUSE, Strain/Sex: HRA/SKH/FEMALE): skin: papilloma

C[C@]12CC[C@@H]3c4ccc(O)cc4CC[C@H]3[C@@H]1CC[C@@H]2O
outcome (Carcinogen: N-ETHYL-N-NITROSOUREA, 759-73-9, Doses [Carcinogen]: 12.5 MG/KG IN POLYETHYLENE GLYCOL ONCE, Doses [Promoter]: 0, 0.32 MG/PELLET IMPLANTED IN PERSISTENT ESTRUS MICE 1 WK PRIOR TO CARCINOGEN DOSE (STUDY DURATION: 16 WK), Route [Carcinogen]: INTRAUTERINE, Route [Promoter]: SUBCUTANEOUS, Species: MOUSE, Strain/Sex: CD-1/FEMALE): uterus: adenocarcinoma
outcome (Carcinogen: N-ETHYL-N-NITROSOUREA, 759-73-9, Doses [Carcinogen]: 50 MG/KG BW IN POLYETHYLENE GLYCOL ONCE AT 10 WK OF AGE, Doses [Promoter]: 0, 0.5% IN CHOLESTEROL PELLET AT 9 WK OF AGE, REMOVED AFTER 8 WK (STUDY DURATION: 15 WK), Route [Carcinogen]: INTRAUTERINE, Route [Promoter]: SUBCUTANEOUS IMPLANT, Species: MOUSE, Strain/Sex: CD-1/FEMALE): uterus: tumor
outcome (Carcinogen: N-ETHYL-N-NITROSOUREA, 759-73-9, Doses [Carcinogen]: 50 MG/KG BW IN POLYETHYLENE GLYCOL ONCE AT 10 WK OF AGE, Doses [Promoter]: 0, 0.5% IN CHOLESTEROL PELLET AT 11 WK OF AGE, REMOVED AFTER 8 WK (STUDY DURATION: 15 WK), Route [Carcinogen]: INTRAUTERINE, Route [Promoter]: SUBCUTANEOUS IMPLANT, Species: MOUSE, Strain/Sex: CD-1/FEMALE): uterus: tumor
outcome (Carcinogen: N-ETHYL-N-NITROSOUREA, 759-73-9, Doses [Carcinogen]: 50 MG/KG BW IN POLYETHYLENE GLYCOL ONCE AT 10 WK OF AGE, Doses [Promoter]: 0, 0.5% IN CHOLESTEROL PELLET AT 14 WK OF AGE, REMOVED AFTER 8 WK (STUDY DURATION: 15 WK), Route [Carcinogen]: INTRAUTERINE, Route [Promoter]: SUBCUTANEOUS IMPLANT, Species: MOUSE, Strain/Sex: CD-1/FEMALE): uterus: tumor
outcome (Carcinogen: N-ETHYL-N-NITROSOUREA, 759-73-9, Doses [Carcinogen]: 50 MG/KG BW IN POLYETHYLENE GLYCOL ONCE AT 10 WK OF AGE, Doses [Promoter]: 0, 0.5% IN CHOLESTEROL PELLET AT 17 WK OF AGE, REMOVED AFTER 8 WK (STUDY DURATION: 15 WK), Route [Carcinogen]: INTRAUTERINE, Route [Promoter]: SUBCUTANEOUS IMPLANT, Species: MOUSE, Strain/Sex: CD-1/FEMALE): uterus: tumor
outcome (Carcinogen: N-METHYL-N'-NITRO-N-NITROSOGUANIDINE, 70-25-7, Doses [Carcinogen]: 50 PPM FOR 60 MIN, Doses [Promoter]: 0, 20 PPM IN DIET BEGINNING 14 WK POST CARCINOGEN DOSE (STUDY DURATION: 12 MO), Route [Carcinogen]: IMMERSION, Route [Promoter]: ORAL, Species: FISH, Strain/Sex: RAINBOW TROUT): liver: tumor
outcome (Carcinogen: N-METHYL-N-NITROSOUREA, 684-93-5, Doses [Carcinogen]: 1 MG/100 G BW INJECTED INTO LEFT UTERINE TUBE ONCE, Doses [Promoter]: 0, 25 PPM IN DIET FOR 29 WK BEGINNING 1 WK POST CARCINOGEN DOSE (STUDY DURATION: 30 WK), Route [Carcinogen]: INJECTION, Route [Promoter]: ORAL, Species: MOUSE, Strain/Sex: ICR/FEMALE): uterus: adenocarcinoma
outcome (Carcinogen: N-METHYL-N-NITROSOUREA, 684-93-5, Doses [Carcinogen]: 40 MG/KG ONCE AT 50 D OF AGE, Doses [Promoter]: 0, 2.5 MG PELLET IMPLANTED ON BACK OF GONADECTOMIZED RATS MAINTAINED ON LOW- IODINE DIET (STUDY DURATION: 30 WK), Route [Carcinogen]: INTRAVENOUS, Route [Promoter]: SUBCUTANEOUS IMPLANT, Species: RAT, Strain/Sex: LONG-EVANS/FEMALE): thyroid: adenoma, carcinoma
outcome (Carcinogen: N-METHYL-N-NITROSOUREA, 684-93-5, Doses [Carcinogen]: 40 MG/KG ONCE AT 50 D OF AGE, Doses [Promoter]: 0, 2.5 MG PELLET IMPLANTED ON BACK OF GONADECTOMIZED RATS MAINTAINED ON LOW- IODINE DIET (STUDY DURATION: 30 WK), Route [Carcinogen]: INTRAVENOUS, Route [Promoter]: SUBCUTANEOUS IMPLANT, Species: RAT, Strain/Sex: LONG-EVANS/MALE): thyroid: adenoma, carcinoma
outcome (Doses [Carcinogen]: 0, 125 PPM IN STATIC SOLUTIONS OF WATER FOR 30 MIN ADMINISTERED TO 21 DAY OLD EMBRYOS, Doses [Promoter]: 0, 20 PPM BEGINNING 6 WK POST CARCINOGEN TREATMENT AND CONTINUING FOR 5 WK FOLLOWED BY CONTROL DIET FOR 1 WK THEN 0, 10, Doses [Promoter]: 0, 20 PPM BEGINNING 6 WK POST CARCINOGEN TREATMENT AND CONTINUING FOR 5 WK FOLLOWED BY CONTROL DIET FOR 1 WK THEN 0, 10, Route [Carcinogen]: IMMERSION, Route [Promoter]: ORAL, Species: FISH, Strain/Sex: MT. SHASTA RAINBOW TROUT): liver: hepatocellular carcinoma or mixed carcinoma or hepatocellular adenoma
outcome (Doses [Carcinogen]: 0.025 PPM IN STATIC SOLUTIONS OF WATER FOR 30 MIN ADMINISTERED TO 21 DAY OLD EMBRYOS, Doses [Promoter]: 0, 20 PPM BEGINNING 6 WK POST CARCINOGEN TREATMENT AND CONTINUING FOR 5 WK FOLLOWED BY CONTROL DIET FOR 1 WK THEN 0, 10, Doses [Promoter]: 0, 20 PPM BEGINNING 6 WK POST CARCINOGEN TREATMENT AND CONTINUING FOR 5 WK FOLLOWED BY CONTROL DIET FOR 1 WK THEN 0, 10, Route [Carcinogen]: IMMERSION, Route [Promoter]: ORAL, Species: FISH, Strain/Sex: MT. SHASTA RAINBOW TROUT): liver: hepatocellular carcinoma or mixed carcinoma
outcome (Doses [Carcinogen]: 0.25 PPM IN STATIC SOLUTIONS OF WATER FOR 30 MIN, Doses [Promoter]: 0, 5 PPM IN DIET BEGINNING 5 WK POST CARCINOGEN TREATMENT AND ALTERNATED EVERY OTHER WK WITH CONTROL DIET FOR DURATION O, Route [Carcinogen]: IMMERSION, Route [Promoter]: ORAL, Species: FISH, Strain/Sex: MT. SHASTA RAINBOW TROUT): liver: hepatocellular carcinoma or mixed carcinoma
outcome (Doses [Carcinogen]: 0.5 PPM FOR 30 MIN, Doses [Promoter]: 0, 20 PPM IN DIET BEGINNING 14 WK POST CARCINOGEN DOSE (STUDY DURATION: 12 MO), Route [Carcinogen]: IMMERSION, Route [Promoter]: ORAL, Species: FISH, Strain/Sex: RAINBOW TROUT): liver: tumor

CC(C)(Oc1ccc(Cl)cc1)C(=O)O
outcome (Carcinogen: Diethylnitrosamine (DEN), 55-18-5, Doses [Carcinogen]: 30 mg/kg, single injection 12 d before initial administration of clofibrate, Doses [Promoter]: 0.5% in diet for up to 12 or 20 mo, Route [Carcinogen]: Intraperitoneal, Route [Promoter]: Oral, Species: Rat, Strain/Sex: F344/Male (175 divided into 4 groups, Vehicle control, DEN, DEN + clofibrate, and clofibrate)): liver: den injection accelerated the appearance of tumors without detectably mod

Oc1ccccc1Cl
outcome [1]: integumentary system (skin)
